One test concerns the target Carbonic anhydrase 1 (Homo sapiens, UniProt P00915). Nature of the test: Inhibition of recombinant human carbonic anhydrase 1 after 15 mins by stopped flow CO2 hydration assay.
The target of another test is Carbonic anhydrase 2 (Homo sapiens, UniProt P00918). Nature of the test: Inhibition of recombinant human carbonic anhydrase 2 after 15 mins by stopped flow CO2 hydration assay.
A further test deals with Carbonic anhydrase 9 (Homo sapiens, UniProt Q16790). Nature of the test: Inhibition of recombinant human carbonic anhydrase 9 after 15 mins by stopped flow CO2 hydration assay.
The species entered for test [1] is Homo sapiens. In words: Selectivity ratio of IC50 for recombinant human carbonic anhydrase 1 to IC50 for recombinant human carbonic anhydrase 9.
Test [2] is filed under the species Homo sapiens. In words: Selectivity ratio of IC50 for recombinant human carbonic anhydrase 2 to IC50 for recombinant human carbonic anhydrase 9.

From ChEMBL document CHEMBL2331543, “Optimization of heterocyclic substituted benzenesulfonamides as novel carbonic anhydrase IX inhibitors and their structure activity relationship” (Eur J Med Chem, 2013) come the findings set out here.

Bounds are passed on as bounds.

Chain of Carbonic anhydrase 1 (P00915 whole entry): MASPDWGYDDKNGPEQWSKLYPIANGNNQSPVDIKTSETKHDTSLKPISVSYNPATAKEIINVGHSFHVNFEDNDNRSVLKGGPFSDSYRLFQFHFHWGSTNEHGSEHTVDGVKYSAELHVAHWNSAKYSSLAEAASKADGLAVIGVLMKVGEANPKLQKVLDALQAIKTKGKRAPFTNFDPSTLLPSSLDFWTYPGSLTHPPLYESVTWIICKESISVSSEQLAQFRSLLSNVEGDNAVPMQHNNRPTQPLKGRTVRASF

The IC50 is the concentration that gives 50% inhibition. On to `NS(=O)(=O)c1cccc(Nc2nnc(-c3ccc(Cl)cc3)c3ccccc23)c1`, for which the IC50 is above 10 µM at Carbonic anhydrase 1, above 10 µM at Carbonic anhydrase 2 and above 0.69 µM at Carbonic anhydrase 9.
In the case of `COc1cccc(-c2nnc(Nc3ccc(S(N)(=O)=O)cc3)c3ccccc23)c1`, the IC50 on Carbonic anhydrase 1 is above 10 µM; on Carbonic anhydrase 2, above 10 µM; on Carbonic anhydrase 9, 3.93 µM.
As to `Cc1ccc(-c2nnc(Nc3ccc(S(N)(=O)=O)cc3)c3ccccc23)cc1S(N)(=O)=O`, the results for the Ratio IC50 in the test listed under Homo sapiens [1] and in the test filed under Homo sapiens [2] were above 10000 and 1140, respectively. The results for the half-maximal inhibitory concentration (IC50) at Carbonic anhydrase 1, on Carbonic anhydrase 2 and on Carbonic anhydrase 9 were above 10 µM, 0.547 µM and 0.00048 µM, respectively.
In the same order, the values of `Nc1ccc(Nc2nnc(-c3cccc(S(N)(=O)=O)c3)c3ccccc23)cc1` are above 100, 5.3, above 10 µM, 0.147 µM and 0.0283 µM.
In the same order, the values of `CC(C)(C)c1ccc(Nc2nnc(-c3cccc(S(N)(=O)=O)c3)c3ccccc23)cc1` are above 100, above 100, above 10 µM, above 10 µM and 0.029 µM.
For `COc1cccc(-c2nnc(Nc3cccc(S(N)(=O)=O)c3)c3ccccc23)c1`, the 50% inhibitory concentration (IC50) is 0.22 µM on Carbonic anhydrase 1, 0.0618 µM on Carbonic anhydrase 2 and above 0.69 µM on Carbonic anhydrase 9.
In the case of `NS(=O)(=O)c1cccc(Nc2nnc(-c3ccc(C(F)(F)F)cc3)c3ccccc23)c1`, the figures for the 50% inhibitory concentration (IC50) at Carbonic anhydrase 1, on Carbonic anhydrase 2 and on Carbonic anhydrase 9 were above 10 µM, above 10 µM and 0.69 µM, respectively.
Regarding `COc1ccc(-c2nnc(Nc3cccc(S(N)(=O)=O)c3)c3ccccc23)cc1`, the concentration for half-maximal inhibition (IC50) was above 10 µM on Carbonic anhydrase 1, above 10 µM at Carbonic anhydrase 2 and above 0.69 µM at Carbonic anhydrase 9.
Take `Cc1cc(-c2nnc(Nc3ccc(S(N)(=O)=O)cc3)c3ccccc23)ccc1S(N)(=O)=O`: the values for the Ratio IC50 in the test listed under Homo sapiens [1] and in the test listed under Homo sapiens [2] were 25.7 and 8.1, respectively. Further, the results for the half-inhibitory concentration (IC50) on Carbonic anhydrase 1, on Carbonic anhydrase 2 and at Carbonic anhydrase 9 were 0.0857 µM, 0.0268 µM and 0.0033 µM, respectively.
`NS(=O)(=O)c1ccc(Nc2nnc(-c3ccc(Cl)cc3)c3ccccc23)cc1`: the figures for the 50% inhibitory concentration (IC50) on Carbonic anhydrase 1, at Carbonic anhydrase 2 and at Carbonic anhydrase 9 were above 10 µM, above 10 µM and above 3.9 µM, respectively.
In the case of `NS(=O)(=O)c1ccc(Nc2nnc(-c3ccc(C(F)(F)F)cc3)c3ccccc23)cc1`, the results for the half-inhibitory concentration (IC50) on Carbonic anhydrase 1, on Carbonic anhydrase 2 and at Carbonic anhydrase 9 were above 10 µM, above 10 µM and above 3.9 µM, respectively.
Consider `NS(=O)(=O)c1cccc(Nc2nnc(-c3ccccc3)c3ccccc23)c1`, for which the IC50 at Carbonic anhydrase 1 is above 10 µM; on Carbonic anhydrase 2, above 10 µM; on Carbonic anhydrase 9, above 0.69 µM.
Turning to `NS(=O)(=O)c1ccc(Nc2nnc(-c3ccccc3)c3ccccc23)cc1`, the IC50 on Carbonic anhydrase 1 was above 10 µM; at Carbonic anhydrase 2 it was above 10 µM; on Carbonic anhydrase 9, above 3.9 µM.
For the compound `NS(=O)(=O)c1ccc(Nc2nnc(-c3cccc(S(N)(=O)=O)c3)c3ccccc23)cc1`, the results for the Ratio IC50 in the test filed under Homo sapiens [1] and in the test filed under Homo sapiens [2] were above 1000 and 24.5, respectively. In addition, the half-inhibitory concentration (IC50) was above 10 µM on Carbonic anhydrase 1, 0.455 µM on Carbonic anhydrase 2 and 0.0185 µM at Carbonic anhydrase 9.
